Laboratory results as given in PubChem BioAssay AID248 (DTP/NCI, 2004).
Several values for one entry are separate records, joined by “and”; a condition that tells them apart may be missing. Equal values may be shown once. Toxic doses and inconclusive results are not listed.

Tested on: L1210 leukemia ip in BDF1 mice, survival T/C
Assay: NCI In Vivo Anticancer Drug Screen. Data for tumor model L1210 Leukemia (intraperitoneal) in B6D2F1 (BDF1) mice
Conditions: endpoint: mean survival time, higher = longer survival
Summary of the method: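 In this screen, tumor-bearing mice given compound are compared to those given vehicle, and their survival values are reported as a treated-to-control quotient.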

[1] = dose: 100.0 mg/kg/injection, schedule: Q01DX001 (ip), vehicle: saline

CC1CCC=C2C(=O)C3OC3C(C(C)(C)O)C21C (stereo not drawn)
T/C (dose: 100.0 mg/kg/injection, schedule: Q01DX009 (ip), vehicle: acetone): 98 % of control | T/C (dose: 100.0 mg/kg/injection, schedule: Q04DX003 (ip), vehicle: saline with Tween-80): 90 % of control | T/C (dose: 200.0 mg/kg/injection, schedule: Q01DX009 (ip), vehicle: acetone): 96 % of control | T/C (dose: 400.0 mg/kg/injection, schedule: Q01DX009 (ip), vehicle: acetone): 100 % of control | T/C (dose: 400.0 mg/kg/injection, schedule: Q04DX003 (ip), vehicle: saline with Tween-80): 93 % of control

Cc1cc(N(CCOS(C)(=O)=O)CCOS(C)(=O)=O)ccc1C=Nc1ccc(-c2csc(COc3ccccc3)n2)cc1
T/C (dose: 66.0 mg/kg/injection, schedule: Q04DX003 (ip), vehicle: Klucel (hydroxypropylcellulose) (HPC)): 116 % of control | T/C (dose: 100.0 mg/kg/injection, schedule: Q04DX003 (ip), vehicle: Klucel (hydroxypropylcellulose) (HPC)): 98 % of control | T/C (dose: 125.0 mg/kg/injection, schedule: Q04DX003 (ip), vehicle: Klucel (hydroxypropylcellulose) (HPC)): 158 % of control | T/C (dose: 150.0 mg/kg/injection, schedule: Q04DX003 (ip), vehicle: Klucel (hydroxypropylcellulose) (HPC)): 154 % of control | T/C (dose: 200.0 mg/kg/injection, schedule: Q04DX003 (ip), vehicle: Klucel (hydroxypropylcellulose) (HPC)): 151 % of control

CC(C)(C)C1CCC(=N[N+](C)(C)C)CC1 (stereo not drawn)
T/C [1]: 104 % of control

COC(=O)c1ccc(F)cc1
T/C (dose: 50.0 mg/kg/injection, schedule: Q01DX001 (ip), vehicle: carboxymethylcellulose (CMC)): 92 % of control | T/C (dose: 100.0 mg/kg/injection, schedule: Q01DX001 (ip), vehicle: carboxymethylcellulose (CMC)): 97 % of control | T/C (dose: 200.0 mg/kg/injection, schedule: Q01DX001 (ip), vehicle: carboxymethylcellulose (CMC)): 97 % of control | T/C (dose: 400.0 mg/kg/injection, schedule: Q01DX001 (ip), vehicle: carboxymethylcellulose (CMC)): 95 % of control

O=NN(CCCl)C(=O)Nc1ccc(S(=O)(=O)c2ccc(NC(=O)N(CCCl)N=O)cc2)cc1
T/C (dose: 100.0 mg/kg/injection, schedule: Q01DX009 (ip), vehicle: carboxymethylcellulose (CMC)): 184 % of control | T/C (dose: 118.0 mg/kg/injection, schedule: Q01DX009 (ip), vehicle: carboxymethylcellulose (CMC)): 152 % of control | T/C (dose: 177.0 mg/kg/injection, schedule: Q01DX001 (ip), vehicle: carboxymethylcellulose (CMC)): 156 % of control | T/C (dose: 200.0 mg/kg/injection, schedule: Q01DX009 (ip), vehicle: carboxymethylcellulose (CMC)): 192 % of control | T/C (dose: 266.0 mg/kg/injection, schedule: Q01DX001 (ip), vehicle: carboxymethylcellulose (CMC)): 159 % of control | T/C (dose: 266.0 mg/kg/injection, schedule: Q01DX009 (ip), vehicle: carboxymethylcellulose (CMC)): 170 % of control | T/C (dose: 400.0 mg/kg/injection, schedule: Q01DX009 (ip), vehicle: carboxymethylcellulose (CMC)): 173 % of control and 186 % of control | T/C (dose: 600.0 mg/kg/injection, schedule: Q01DX001 (ip), vehicle: carboxymethylcellulose (CMC)): 161 % of control and 172 % of control

Cc1ccc(S(=O)(=O)N(CCCc2ccccc2)c2ccc(C(=O)NC(CCC(=O)O)C(=O)O)cc2)cc1 (stereo not drawn)
T/C (dose: 75.0 mg/kg/injection, schedule: Q01DX001 (ip), vehicle: gum acacia): 101 % of control | T/C (dose: 150.0 mg/kg/injection, schedule: Q01DX001 (ip), vehicle: gum acacia): 107 % of control | T/C (dose: 300.0 mg/kg/injection, schedule: Q01DX001 (ip), vehicle: gum acacia): 93 % of control

Cn1nnnc1N/N=C/c1ccccc1
T/C (dose: 100.0 mg/kg/injection, schedule: Q01DX009 (ip), vehicle: saline with Tween-80): 98 % of control | T/C (dose: 200.0 mg/kg/injection, schedule: Q01DX009 (ip), vehicle: saline with Tween-80): 95 % of control | T/C (dose: 400.0 mg/kg/injection, schedule: Q01DX009 (ip), vehicle: saline with Tween-80): 95 % of control

CC(C)c1sc([S-])n[n+]1-c1ccccc1
T/C [1]: 104 % of control | T/C (dose: 100.0 mg/kg/injection, schedule: Q04DX003 (ip), vehicle: saline): 101 % of control | T/C (dose: 200.0 mg/kg/injection, schedule: Q01DX001 (ip), vehicle: saline): 101 % of control | T/C (dose: 200.0 mg/kg/injection, schedule: Q04DX003 (ip), vehicle: saline): 95 % of control | T/C (dose: 400.0 mg/kg/injection, schedule: Q01DX001 (ip), vehicle: saline): 91 % of control | T/C (dose: 400.0 mg/kg/injection, schedule: Q04DX003 (ip), vehicle: saline): 101 % of control

COc1cc(C=Nc2ccc(C)c(Cl)c2)ccc1OC(=O)c1ccccc1
T/C (dose: 100.0 mg/kg/injection, schedule: Q04DX002 (ip), vehicle: saline with Tween-80): 96 % of control | T/C (dose: 200.0 mg/kg/injection, schedule: Q04DX002 (ip), vehicle: saline with Tween-80): 93 % of control | T/C (dose: 400.0 mg/kg/injection, schedule: Q04DX002 (ip), vehicle: saline with Tween-80): 104 % of control
